IC50 data for 25 compounds are collected here from patent US9315520B2, “2-amino-6-methyl-4,4a,5,6-tetrahydropyrano[3,4-d][1,3]thiazin-8a(8H)-yl-1,3-thiazol-4-yl amides” (Pfizer Inc., priority 2014, dated 2016).

Structures can show the parent of a compound that is named as a salt.

BACE1, sequence (P56817 46-457): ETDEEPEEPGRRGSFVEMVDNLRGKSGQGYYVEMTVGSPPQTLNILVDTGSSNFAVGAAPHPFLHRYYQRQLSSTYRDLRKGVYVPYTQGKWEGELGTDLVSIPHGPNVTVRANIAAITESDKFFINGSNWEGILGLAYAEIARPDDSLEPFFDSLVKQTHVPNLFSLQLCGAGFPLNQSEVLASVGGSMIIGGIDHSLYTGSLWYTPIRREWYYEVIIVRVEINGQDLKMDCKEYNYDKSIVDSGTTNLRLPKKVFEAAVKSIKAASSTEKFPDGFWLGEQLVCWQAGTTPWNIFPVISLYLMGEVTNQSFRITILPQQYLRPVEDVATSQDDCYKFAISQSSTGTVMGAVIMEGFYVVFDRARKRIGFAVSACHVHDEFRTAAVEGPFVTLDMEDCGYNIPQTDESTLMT

One assay concerns the target BACE1 (Homo sapiens (Human), UniProt P56817). Briefly: BACE1 Cell-Free Assay (fluorescence polarization). It is filed as biochemical. The conditions noted are these: geometric mean of 2-4 determinations unless otherwise indicated (b: ≧5; c: single determination); read-out: BACE1 Cell-free Assay IC50. The source says: This assay measures the inhibition of the beta-secretase enzyme as it cleaves a non-native peptide.
A synthetic APP substrate that can be cleaved by beta-secretase having N-terminal biotin and made fluorescent by the covalent attachment of Oregon Green at the Cys residue is used to assay beta-secretase activity in the presence or absence of the inhibitory compounds. […] The BACE1 enzyme is affinity purified material from conditioned media of CHO-K1 cells that have been transfected with a soluble BACE construct (BACE1deltaTM96His). […] Plates are covered and incubated for 3 hours at 37° C. […] The activity of the beta-secretase enzyme is detected by changes in the fluorescence polarization that occur when the substrate is cleaved by the enzyme.
For orientation: Polarisation of emitted light reports the rotation of a fluorescent probe.
Usually IC50 stands for the concentration that gives 50% inhibition. `C[C@H]1C[C@H]2CSC(N)=N[C@@]2(c2nc(NC(=O)c3coc(CF)n3)cs2)CO1` [Example 3, N-{2-[(4aR,6S,8aR)-2-amino-6-methyl-4,4a,5,6-tetrahydropyrano[3,4-d][1,3]thiazin-8a(8H)-yl]-1,3-thiazol-4-yl}-2-(fluoromethyl)-1,3-oxazole-4-carboxamide]: the IC50 was 7 nM.
With `C[C@H]1C[C@H]2CSC(N)=N[C@@]2(c2nc(NC(=O)c3ccn(C(F)F)n3)cs2)CO1` [Example 4, N-{2-[(4aR,6S,8aR)-2-amino-6-methyl-4,4a,5,6-tetrahydropyrano[3,4-d][1,3]thiazin-8a(8H)-yl]-1,3-thiazol-4-yl}-1-(difluoromethyl)-1H-pyrazole-3-carboxamide], the 50% inhibitory concentration (IC50) worked out at 9 nM.
`C[C@H]1C[C@H]2CSC(N)=N[C@@]2(c2nc(NC(=O)c3ccc(C#N)cn3)cs2)CO1` [Example 5, N-{2-[(4aR,6S,8aR)-2-amino-6-methyl-4,4a,5,6-tetrahydropyrano[3,4-d][1,3]thiazin-8a(8H)-yl]-1,3-thiazol-4-yl}-5-cyanopyridine-2-carboxamide]: the IC50 was determined as 22 nM.
For `C[C@H]1C[C@H]2CSC(N)=N[C@@]2(c2nc(NC(=O)c3ccc(F)cn3)cs2)CO1` [Example 9, N-{2-[(4aR,6S,8aR)-2-amino-6-methyl-4,4a,5,6-tetrahydropyrano[3,4-d][1,3]thiazin-8a(8H)-yl]-1,3-thiazol-4-yl}-5-fluoropyridine-2-carboxamide], the IC50 stood at 189 nM.
On the same count and under the same terms, in the case of `COc1cnc(C(=O)Nc2csc([C@]34CO[C@@H](C)C[C@H]3CSC(N)=N4)n2)cn1` [Example 10, N-{2-[(4aR,6S,8aR)-2-amino-6-methyl-4,4a,5,6-tetrahydropyrano[3,4-d][1,3]thiazin-8a(8H)-yl]-1,3-thiazol-4-yl}-5-methoxypyrazine-2-carboxamide] it was 536 nM; in that of `C[C@H]1C[C@H]2CSC(N)=N[C@@]2(c2nc(NC(=O)c3cnc(CF)cn3)cs2)CO1` [Example 11, N-{2-[(4aR,6S,8aR)-2-amino-6-methyl-4,4a,5,6-tetrahydropyrano[3,4-d][1,3]thiazin-8a(8H)-yl]-1,3-thiazol-4-yl}-5-(fluoromethyl)pyrazine-2-carboxamide], 315 nM.
Still for that read-out and setting: in the case of `C[C@H]1C[C@H]2CSC(N)=N[C@@]2(c2nc(NC(=O)c3cnc(OCC(F)F)cn3)cs2)CO1` [Example 12, N-{2-[(4aR,6S,8aR)-2-amino-6-methyl-4,4a,5,6-tetrahydropyrano[3,4-d][1,3]thiazin-8a(8H)-yl]-1,3-thiazol-4-yl}-5-(2,2-difluoroethoxy)pyrazine-2-carboxamide] it was 280 nM; in that of `C[C@H]1C[C@H]2CSC(N)=N[C@@]2(c2nc(NC(=O)c3cnc(C(F)F)cn3)cs2)CO1` [Example 15, N-{2-[(4aR,6S,8aR)-2-amino-6-methyl-4,4a,5,6-tetrahydropyrano[3,4-d][1,3]thiazin-8a(8H)-yl]-1,3-thiazol-4-yl}-5-(difluoromethyl)pyrazine-2-carboxamide], 145 nM.
On the same count and under the same terms, with `C[C@H]1C[C@H]2CSC(N)=N[C@@]2(c2nc(NC(=O)c3ccc(C(F)(F)F)cn3)cs2)CO1` [Example 17, N-{2-[(4aR,6S,8aR)-2-amino-6-methyl-4,4a,5,6-tetrahydropyrano[3,4-d][1,3]thiazin-8a(8H)-yl]-1,3-thiazol-4-yl}-5-(trifluoromethyl)pyridine-2-carboxamide] the figure was 54 nM; with `C[C@H]1C[C@H]2CSC(N)=N[C@@]2(c2nc(NC(=O)c3ncc(F)cc3F)cs2)CO1` [Example 18, N-{2-[(4aR,6S,8aR)-2-amino-6-methyl-4,4a,5,6-tetrahydropyrano[3,4-d][1,3]thiazin-8a(8H)-yl]-1,3-thiazol-4-yl}-3,5-difluoropyridine-2-carboxamide], 153 nM.
Turning to `COc1ccc(C(=O)Nc2csc([C@]34CO[C@@H](C)C[C@H]3CSC(N)=N4)n2)nc1` [Example 19, N-{2-[(4aR,6S,8aR)-2-amino-6-methyl-4,4a,5,6-tetrahydropyrano[3,4-d][1,3]thiazin-8a(8H)-yl]-1,3-thiazol-4-yl}-5-methoxypyridine-2-carboxamide], the IC50 was 259 nM.
On the same count and under the same terms, in the case of `C[C@H]1C[C@H]2CSC(N)=N[C@@]2(c2nc(NC(=O)c3ccc(OC(F)(F)F)cn3)cs2)CO1` [Example 20, N-{2-[(4aR,6S,8aR)-2-amino-6-methyl-4,4a,5,6-tetrahydropyrano[3,4-d][1,3]thiazin-8a(8H)-yl]-1,3-thiazol-4-yl}-5-(trifluoromethoxy)pyridine-2-carboxamide] it was 108 nM; in that of `C[C@H]1C[C@H]2CSC(N)=N[C@@]2(c2nc(NC(=O)c3ccc(OC(F)F)cc3)cs2)CO1` [Example 21, N-{2-[(4aR,6S,8aR)-2-amino-6-methyl-4,4a,5,6-tetrahydropyrano[3,4-d][1,3]thiazin-8a(8H)-yl]-1,3-thiazol-4-yl}-4-(difluoromethoxy)benzamide], 106 nM.
In the case of `CC#CCOc1cnc(C(=O)Nc2csc([C@]34CO[C@@H](C)C[C@H]3CSC(N)=N4)n2)cn1` [Example 22, N-{2-[(4aR,6S,8aR)-2-amino-6-methyl-4,4a,5,6-tetrahydropyrano[3,4-d][1,3]thiazin-8a(8H)-yl]-1,3-thiazol-4-yl}-5-(but-2-yn-1-yloxy)pyrazine-2-carboxamide], the IC50 turned out to be 13 nM.
The same measure, in the same setting: in the case of `C[C@H]1C[C@H]2CSC(N)=N[C@@]2(c2nc(NC(=O)c3cc4ccccn4n3)cs2)CO1` [Example 23, N-{2-[(4aR,6S,8aR)-2-amino-6-methyl-4,4a,5,6-tetrahydropyrano[3,4-d][1,3]thiazin-8a(8H)-yl]-1,3-thiazol-4-yl}pyrazolo[1,5-a]pyridine-2-carboxamide] it was 1000 nM.
Still for that read-out and setting: with `C[C@H]1C[C@H]2CSC(N)=N[C@@]2(c2nc(NC(=O)c3ccn(C)n3)cs2)CO1` [Example 24, N-{2-[(4aR,6S,8aR)-2-amino-6-methyl-4,4a,5,6-tetrahydropyrano[3,4-d][1,3]thiazin-8a(8H)-yl]-1,3-thiazol-4-yl}-1-methyl-1H-pyrazole-3-carboxamide] the figure was 81 nM; with `C[C@H]1C[C@H]2CSC(N)=N[C@@]2(c2nc(NC(=O)c3ccc(C(F)F)cn3)cs2)CO1` [Example 25, N-{2-[(4aR,6S,8aR)-2-amino-6-methyl-4,4a,5,6-tetrahydropyrano[3,4-d][1,3]thiazin-8a(8H)-yl]-1,3-thiazol-4-yl}-5-(difluoromethyl)pyridine-2-carboxamide], 74 nM; with `C[C@H]1C[C@H]2CSC(N)=N[C@@]2(c2nc(NC(=O)c3ccc(OCF)cn3)cs2)CO1` [Example 26, N-{2-[(4aR,6S,8aR)-2-amino-6-methyl-4,4a,5,6-tetrahydropyrano[3,4-d][1,3]thiazin-8a(8H)-yl]-1,3-thiazol-4-yl}-5-(fluoromethoxy)pyridine-2-carboxamide], 68 nM.
On the same count and under the same terms, in the case of `C[C@H]1C[C@H]2CSC(N)=N[C@@]2(c2nc(NC(=O)c3coc(C4CC4)n3)cs2)CO1` [Example 27, N-{2-[(4aR,6S,8aR)-2-amino-6-methyl-4,4a,5,6-tetrahydropyrano[3,4-d][1,3]thiazin-8a(8H)-yl]-1,3-thiazol-4-yl}-2-cyclopropyl-1,3-oxazole-4-carboxamide] it was 1310 nM; in that of `C[C@H]1C[C@H]2CSC(N)=N[C@@]2(c2nc(NC(=O)c3cnccn3)cs2)CO1` [Example 28, N-{2-[(4aR,6S,8aR)-2-amino-6-methyl-4,4a,5,6-tetrahydropyrano[3,4-d][1,3]thiazin-8a(8H)-yl]-1,3-thiazol-4-yl}pyrazine-2-carboxamide], 647 nM.
As to `Cc1nn(C)cc1C(=O)Nc1csc([C@]23CO[C@@H](C)C[C@H]2CSC(N)=N3)n1` [Example 29, N-{2-[(4aR,6S,8aR)-2-amino-6-methyl-4,4a,5,6-tetrahydropyrano[3,4-d][1,3]thiazin-8a(8H)-yl]-1,3-thiazol-4-yl}-1,3-dimethyl-1H-pyrazole-4-carboxamide], the half-inhibitory concentration (IC50) worked out at 1990 nM.
Regarding `C[C@H]1C[C@H]2CSC(N)=N[C@@]2(c2nc(NC(=O)c3cccnn3)cs2)CO1` [Example 30, N-{2-[(4aR,6S,8aR)-2-amino-6-methyl-4,4a,5,6-tetrahydropyrano[3,4-d][1,3]thiazin-8a(8H)-yl]-1,3-thiazol-4-yl}pyridazine-3-carboxamide], the IC50 stood at 2160 nM.

The assay is the same for the next values; noted with them: read-out: BACE1 Cell-free Assay IC50.
As to `Cc1cc(F)cnc1C(=O)Nc1csc([C@]23CO[C@@H](C)C[C@H]2CSC(N)=N3)n1` [Example 13, N-{2-[(4aR,6S,8aR)-2-amino-6-methyl-4,4a,5,6-tetrahydropyrano[3,4-d][1,3]thiazin-8a(8H)-yl]-1,3-thiazol-4-yl}-5-fluoro-3-methylpyridine-2-carboxamide, formate salt], the IC50 came out at 90 nM.
The same measure, in the same setting: in the case of `C[C@H]1C[C@H]2CSC(N)=N[C@@]2(c2nc(NC(=O)c3ccc(F)cc3)cs2)CO1` [Example 14, N-{2-[(4aR,6S,8aR)-2-amino-6-methyl-4,4a,5,6-tetrahydropyrano[3,4-d][1,3]thiazin-8a(8H)-yl]-1,3-thiazol-4-yl}-4-fluorobenzamide, formate salt] it was 866 nM.
Turning to `C[C@H]1C[C@H]2CSC(N)=N[C@@]2(c2nc(NC(=O)c3cnc(C(F)(F)F)cn3)cs2)CO1` [Example 16, N-{2-[(4aR,6S,8aR)-2-amino-6-methyl-4,4a,5,6-tetrahydropyrano[3,4-d][1,3]thiazin-8a(8H)-yl]-1,3-thiazol-4-yl}-5-(trifluoromethyl)pyrazine-2-carboxamide, formate salt], the half-maximal inhibitory concentration (IC50) came to 193 nM.
